# Source: patent US4048328A, “Alkyl derivatives of 4,5-dehydro PGF1” (American Home Products Corporation, priority 1976, dated 1977)
# Where two headings read alike, the source gives them in different places.
# Columns and labels:
# [1] = tested on: gastric secretion; conditions: in vivo; cited from earlier work
# [2] = tested on: mated hamsters; test: abortifacient test in mated hamsters (Labhsetwar); type: in vivo, hamster; conditions: Mesocricetus auratus, sc
# Method: Furthermore, when the compounds of this invention are tested by the method of A. P. Labhsetwar, Nature 230, 528 (1971) whereby the compound is given subcutaneously on a daily basis to mated hamsters on days 4, 5 and 6 of pregnancy, thereafter the animals being sacrificed on day 7 of pregnancy and the number of abortions counted, the compounds are shown to have abortifacient properties.
# [3] = tested on: secretion of gastric acid; test: inhibition of gastric acid secretion in rats (Shay et al.); type: in vivo; conditions: po; orally, rat
# Method: For example, when trans,cis-7-[2-(3-hydroxy-4,4-dimethyl-1-octenyl)-5-oxocyclopentyl]-5-heptanoic acid (Example 68) is given orally to the rat according to the aforementioned method, an ED50 of about 1.0 mg/kg is obtained for the compound.
# [4] = tested on: horse; test: synchronization of estrus and regulation of ovulation in the horse; type: in vivo; conditions: given on second and third day before expected estrus; rectal palpation
# Description: It is often desirable to synchronize estrus in domestic animals, for example, horses, cattle, sheep, swine or dogs, in order to be able to perform artificial insemination or mating with a male of the desired genetic quality under optimum conditions. In the past, this has been done by administering to the animals an ovulation-inhibiting agent, withdrawing administration of said agent shortly before the date chosen for mating or artificial insemination, and relying either upon the natural production of LH and FSH to induce ovulation and to produce estrus or by administering gonadotrophins. However, this procedure was not entirely satisfactory because ovulation at a predetermined time occured only in a certain proportion of the animals when gonadotrophins were not used. On the other hand, the high cost of gonadotrophins and side effects encountered in their administration needs this method impractical. It is now possible to obtain substantially complete synchronization of ovulation and of estrus, by treating the animals in a given group with the compound of formula 1 before the predetermined period of time for mating or artificial insemination, so as to obtain ovulation and estrus within that time interval. The delay in the onset of ovulation and estrus following administration of the compound of this invention varies with the species of animal. […]
# [5] = tested on: histamine-induced bronchoconstriction; test: histamine-induced bronchoconstriction in the anesthetized guinea pig (Greenberg and Beaulieu); type: in vivo
# Method: (§1) Maximal effect was seen within 3 minutes after 10 μg/kg and returned to the control level within 50 minutes. Hypotension of short duration (1 - 2 minutes) occurred following this mode of administration. […] Maximal effect was seen within 3 minutes after 0.1 μg/kg and returned to the control level within 70 minutes.
# Percentage inhibition of histamine-induced bronchoconstriction in the anesthetized guinea pig after intravenous administration of trans-7-[2-(3-hydroxy-3-methyl-1-octenyl)-5-oxocyclopentyl]heptanoic acid (Isomer B'). Each value is the mean of 8 - 12 experiments.
# Percentage inhibition of histamine-induced bronchoconstriction in the anesthetized guinea pig after aerosol administration of trans-7-[2-(3-hydroxy-3-methyl-1-oxtenyl)-5-oxocyclopentyl]heptanoic acid (Isomer B'). Each value is the mean of 8 - 12 experiments.
# [6] = tested on: guinea pig tracheal strip; test: relaxation of carbachol-induced contractions of isolated guinea pig tracheal strips; conditions: for RELAXATION of tracheal strip: carbachol-contracted, mean of 12 strips
# Description: The relaxation of the guinea pig tracheal strip by trans-7-[2-(3-hydroxy-3-methyl-1-octenyl)-5-oxocyclopentyl]heptanoic acid (Isomer B'). Each value is the mean of the responses of 12 strips.
# [7] = tested on: blood pressure; test: blood pressure after administration in the anesthetized guinea pig; type: in vivo; conditions: after aerosol administration
# Method: as §1
# [8] = basic and acidic conditions; cited from earlier work
# [9] = tested on: pregnancy; conditions: rhesus monkey; cited from earlier work
# [10] = tested on: pregnancy; conditions: human; cited from earlier work
# [11] = 168 h, subcutaneous, days 4, 5 and 6 of pregnancy, sacrificed day 7, read-out: dose giving complete abortion in all animals
compound,measurement,setting,value
"CCCCC(C)(C)[C@H](O)/C=C/[C@H]1[C@H](O)CC(=O)[C@@H]1C/C=C\CCCC(=O)OC [16,16-dimethyl PGE2 methyl ester]",effect on gastric secretion,[1],effective in inhibiting gastric acid secretion
"CCCCCC(C)(O)/C=C/[C@H]1CCC(=O)[C@@H]1CC/C=C\CCC(=O)O (relative stereo) [trans, cis-7-[2-(3-hydroxy-3-methyl-1-octenyl)-5-oxocyclopentyl]-4-heptenoic acid]",ED100,[2]; [11],1 mg/kg/day
CCCCC[C@](C)(O)/C=C/[C@H]1[C@H](O)CC(=O)[C@@H]1C/C=C\CCCC(=O)O [15(S)-methyl PGE2],effect on gastric secretion,[1],inhibit gastric secretion
"CCCCC(C)(C)C(O)/C=C/[C@H]1CCC(=O)[C@@H]1C/C=C\CCCC(=O)O (relative stereo) [trans, cis-7-[2-(3-hydroxy-4,4-dimethyl-1-octenyl)-5-oxocyclopentyl]-5-heptenoicacid]",ED50,[3],~1 mg/kg
"CCCCCC(C)(O)/C=C/[C@H]1CC[C@H](O)[C@@H]1C/C=C\CCCC(=O)O (relative stereo) [trans, cis-7-[2α-hydroxy-5-(3-hydroxy-3-methyl-1-octenyl)cyclopentyl]-5-heptenoic acid]",ovulation after estrus (majority of animals),[4],from the fourth to the sixth day
CCCCC[C@@](C)(O)/C=C/[C@H]1[C@H](O)CC(=O)[C@@H]1C/C=C\CCCC(=O)O [15(R)-methyl],effect on gastric secretion,[1],inhibit gastric secretion
"CCCCCC(C)(O)/C=C/[C@H]1CCC(=O)[C@@H]1C/C=C\CCCC(=O)O (relative stereo) [trans, cis-7-[2-(3-Hydroxy-3-methyl-1-octenyl)-5-oxocyclopentyl]-5-heptenoic Acid]",ED100,[2]; [11],2.5 mg/kg/day
"CCCCCC(C)(O)/C=C/[C@H]1CCC(=O)[C@@H]1CCCCCCC(=O)O (single isomer, unassigned) [Isomer B', trans-7-[2-(3-hydroxy-3-methyl-1-octenyl)-5-oxocyclopentyl]-heptanoic acid]",inhibition at 1e-05 mg/kg,"[5]; Cavia porcellus, intravenous, 0.01 μg/kg, mean of 8 - 12 experiments",14.8 ± 2%
same,inhibition at 0.0001 mg/kg,"[5]; Cavia porcellus, intravenous, 0.1 μg/kg, mean of 8 - 12 experiments",46.4 ± 5.5%
same,inhibition at 0.001 mg/kg,"[5]; Cavia porcellus, intravenous, 1.0 μg/kg, mean of 8 - 12 experiments",66 ± 5.4%
same,inhibition at 0.01 mg/kg,"[5]; Cavia porcellus, intravenous, 10.0 μg/kg, mean of 8 - 12 experiments",81.9 ± 5.2%
same,"inhibition of histamine-induced bronchoconstriction, dose relation",[5]; aerosol,linear dose related inhibition
same,times more potent than prostaglandin E2 or 11-deoxy-prostaglandin E1,[5]; aerosol,78 times
same,time of maximal effect,"[5]; aerosol, after 0.1 μg/kg",≤ 3 min
same,time of return to the control level,"[5]; aerosol, after 0.1 μg/kg",≤ 70 min
same,% INHIBITION of histamine-induced bronchoconstriction,"[5]; aerosol, total dose 10^-1 μg, mean of 8 - 12 experiments",78.1 ± 4.2%
same,% INHIBITION of histamine-induced bronchoconstriction,"[5]; aerosol, total dose 10^-2 μg, mean of 8 - 12 experiments",66.8 ± 4.7%
same,% INHIBITION of histamine-induced bronchoconstriction,"[5]; aerosol, total dose 10^-3 μg, mean of 8 - 12 experiments",49.3 ± 5.0%
same,% INHIBITION of histamine-induced bronchoconstriction,"[5]; aerosol, total dose 10^-4 μg, mean of 8 - 12 experiments",38.6 ± 5.9%
same,% INHIBITION of histamine-induced bronchoconstriction,"[5]; aerosol, total dose 10^-5 μg, mean of 8 - 12 experiments",20.9 ± 5.1%
same,"inhibition of histamine-induced bronchoconstriction, dose relation",[5]; intravenous,linear dose related inhibitions
same,times more potent than prostaglandin E2 or 11-deoxy-prostaglandin E1,[5]; intravenous,32 times
same,time of maximal effect,"[5]; intravenous, after 10 μg/kg",≤ 3 min
same,time of return to the control level,"[5]; intravenous, after 10 μg/kg",≤ 50 min
same,RELAXATION of tracheal strip,[6]; 1.0 μg/ml,0.2 ± 0.2 g
same,RELAXATION of tracheal strip,[6]; 3.0 μg/ml,0.39 ± 0.04 g
same,RELAXATION of tracheal strip,[6]; 10 μg/ml,0.79 ± 0.1 g
same,RELAXATION of tracheal strip,[6]; 30 μg/ml,1.29 ± 0.1 g
same,"relaxation of the tracheal strip, dose relation",[6]; cumulative concentrations,linear dose related relaxation
same,changes in the blood pressure,[7],no notable changes in the blood pressure
"CCCCCC(C)(O)CCC1CCC(=O)C1CCCCCCC(=O)O (centres unmarked) [2-(3-hydroxy-3-methyl-octyl)-5-oxocyclopentaneheptanoic acid, reference compound]",ED100,"[2]; comparison with saturated 15-methyl analog, above test, read-out: dose below which complete abortion is not caused",≥ 30 mg/kg/day
CCCCC[C@H](O)/C=C/[C@H]1[C@H](O)CC(=O)[C@@H]1C/C=C\CCCC(=O)O [PGE2],dehydration of the 11-hydroxy group,[8],participates readily in dehydration reactions
CCCCC[C@](C)(O)/C=C/[C@@H]1[C@@H](C/C=C\CCCC(=O)O)[C@@H](O)C[C@H]1O [15-Methyl PGF2α],effect on pregnancy,[9],interrupt pregnancy
same,effect on pregnancy,[10],interrupt pregnancy
CCCCCC(C)(O)/C=C/[C@H]1CCC(=O)[C@@H]1CCCCCCC(=O)O (relative stereo) [trans-7-[2-(3-hydroxy-3-methyl-1-octenyl)-5-oxocyclopentyl]-heptanoic acid],protection against histamine-induced bronchospasm,[5]; anesthetized guinea pig,significant protection
"CCCCCC(C)(O)/C=C/[C@H]1CCC(O)[C@@H]1C/C=C\CCCC(=O)O (relative stereo) [trans, cis-7[2-hydroxy-5-(3-hydroxy-3-methyl-1-octenyl)cyclopentyl]-5-heptenoic acid]",ED100,[2]; [11],0.5 mg/kg/day
CCCCCC(C)(O)/C=C/[C@H]1[C@H](O)CC(=O)[C@@H]1C/C=C\CCCC(=O)OC (some centres unmarked) [15-methyl PGE2 methyl esters],effect on pregnancy,[9],interrupt pregnancy
same,effect on pregnancy,[10],interrupt pregnancy
